# Test results published in patent US20220047494A1, “ANTIBACTERIAL, DEODORIZATION, EASING OF ACNE AND ATOPY OR SKIN CALMING-FUNCTIONAL COMPOSITION FOR Y-ZONE CLEANLINESS CONTAINING QUERCUS ACUTISSIMA SAP AND ZINC RICINOLEATE” (MEDICLASSIC.CO.LTD, priority 2020, published 2022).
# Tested on: Staphylococcus epidermidis (KTTC12228)
# Assay: Paper disk diffusion antibacterial activity
# Type: cell-based
# Conditions: paper disk 8 mm, mean ± SD (n = 3)
# Description: In Experimental Example according to the present invention, Propionibacterium acnes (KCTC3314), which is an acne-causing pathogen, Candida albicans (ATCC 10231), which is a yeast that causes inflammatory or bacterial skin diseases, and Staphylococcus epidermidis (KTTC12228), which is gram-positive skin flora, were used. Propionibacterium acnes (KCTC3314) was inoculated into reinforced clostridial (RC) medium, sealed using a […] system in an anaerobic culture tank, and then anaerobically cultured at 37° C. for two days. As an aerobic strain of Candida albicans (ATCC 10231), Sabaurd Dextrose Agar (Difco. USA) was used, inoculated with the bacteria, and cultured in an incubator at 25° C. for 24 hours. As an aerobic strain, Staphylococcus epidermidis (KTTC12228) was inoculated into Mueller-Hinton medium and cultured at 37° C. for 24 hours before use. With respect to the ingredients according to Preparation Example and Comparative Preparation Example, an antibacterial activity against Staphylococcus epidermidis (KTC12228) was measured by using a paper disk diffusion method. Specifically, the evaluation of antibacterial activity against Staphylococcus epidermidis (KTTC12228), which is a secondary acne-causing pathogen, was performed by carrying out a cultivation with Muller-Hinton medium at 37° C. for 24 hours, and evenly spreading a bacterial suspension adjusted at a constant concentration (absorbance of 0.5 at an optical density of 620 nm) on an RC agar plate using a sterile cotton swab. After that, the plate was dried and a paper disk (Φ 8 mm, […]. USA) was placed on the surface of the plate inoculated with the strain, after which samples according to Preparation Example 2 and Comparative Preparation Examples 1 to 4, the positive control tetracycline and a mixed sample of Preparation Examples 1 and 2 (6:4) were absorbed thereon for each concentration. The sample-treated plate was cultured in an anaerobic culture tank for three days using the […] system, after which the antibacterial activity was measured by the size of the inhibition zone around the disk, and the results thereof are shown in table 2 below, respectively.
compound,measurement,setting,value
"CN(C)[C@@H]1C(O)=C(C(N)=O)C(=O)[C@@]2(O)C(O)=C3C(=O)c4c(O)cccc4[C@@](C)(O)[C@H]3C[C@@H]12 [Tetracycline, tetracycline]",zone of inhibition at 1000 µg/disc,"Staphylococcus epidermidis, concentration 1 mg, read-out: Zone of inhibition (diameter in mm)",~12 mm
same,zone of inhibition at 5000 µg/disc,"Staphylococcus epidermidis, concentration 5 mg, read-out: Zone of inhibition (diameter in mm)",~14 mm
same,Zone of inhibition (diameter in mm),concentration 1 mg,12.82 ± 0.43 mm
same,Zone of inhibition (diameter in mm),concentration 5 mg,14.92 ± 0.23 mm
